From US10829778B2, “Plants having increased tolerance to herbicides” (BASF SE, priority 2013, dated 2020)

Assays:
[1] = target: T1, HvHPPD L353M, P321R, L320Q (SEQ ID: 2) (Hordeum vulgare, UniProt O48604, L320Q/L353M/P321R); assay: HPPD activity assay, mutant enzyme; format: biochemical; conditions: Table 16, normalized to Hordeum wild-type
T1 construct: His tag (N); made in house; host or cells: E. coli BL21 (DE3)
Protocol: (§1) HPPD produces homogentisic acid and CO2 from 4-hydroxyphenylpyruvate (4-HPP) and O2. The activity assay for HPPD is based on the analysis of homogentisic acid by reversed phase HPLC.
(§2) The assay mixture can contain 150 mM potassium phosphate buffer pH 7.0, 50 mM L-ascorbic acid, 100 μM Catalase (Sigma-Aldrich), 1 μM FeSO4 and 0.2 units of purified HPPD enzyme in a total volume of 505 μl. 1 unit is defined as the amount of enzyme that is required to produce 1 nmol of HGA per minute at 20° C.
(§3) After a preincubation of 30 min the reaction is started by adding 4-HPP to a final concentration of 0.05 mM. The reaction is allowed to proceed for 45 min at room temperature. The reaction is stopped by the addition of 50 μl of 4.5 M phosphoric acid. The sample is filtered using a […] pore size PVDF filtration device.
(§4) 5 μl of the cleared sample is analyzed on an UPLC HSS T3 column (particle size 1.8 μm, dimensions 2.1×50 mm; Waters) by isocratic elution using 90% 20 mM NaH2PO4 pH 2.2, 10% methanol (v/v).
(§5) HGA is detected electrochemically at 750 mV (mode: DC; polarity: positive) and quantified by integrating peak areas (Empower software; Waters).
(§6) Inhibitors are dissolved in DMSO (dimethylsulfoxide) to a concentration of 0.5 mM. From this stock solution serial five-fold dilutions are prepared in DMSO, which are used in the assay. The respective inhibitor solution accounts for 1% of the assay volume. […] Activities are normalized by setting the uninhibited enzyme activity to 100%. IC50 values are calculated using non-linear regression.
(§7) Purified, mutant HPPD enzymes are obtained by the methods described above. Dose response and kinetic measurements are carried out using the described HPPD activity assay. Apparent michaelis constants (Km) and maximal reaction velocities (Vmax) are calculated by non-linear regression with the software GraphPad Prism 5 (GraphPad Software, La Jolla, USA) using a substrate inhibition model. […] Weighted means (by standard error) of Km and IC50 values are calculated from at least three independent experiments.
(§8) Field performance of the optimized HPPD enzyme, which is used as a herbicide tolerance trait may depend not only on its lack of sensitivity towards HPPD inhibiting herbicides but also on its activity. To assess the potential performance of a herbicide tolerance trait a tolerance index (TI) is calculated using the following formula: […]
(§9) Easy comparison and ranking of each trait is enabled by normalizing tolerance indexes on Arabidopsis or Hordeum wild-type HPPD.

[2] = target: T2, HvHPPD L320H, P321A (SEQ ID: 2) (Hordeum vulgare, UniProt O48604, L320H/P321A); assay: HPPD activity assay, mutant enzyme; format: biochemical; conditions: Table 16, normalized to Hordeum wild-type
T2 construct: His tag (N); made in house; host or cells: E. coli BL21 (DE3)
Protocol: as §1, §2, §3, §4, §5, §6, §7, §8, §9

[3] = target: T3, Arabidopsis HPPD (SEQ ID: 53) M335H, P336A (Arabidopsis thaliana, UniProt P93836, M335H/P336A); assay: HPPD activity assay, mutant enzyme; format: biochemical; conditions: Table 15, normalized to Arabidopsis wild-type
T3 construct: PCR-based site directed mutagenesis of pEXP5-NT/TOPO®-AtHPPD; His6 (N); made in house; host or cells: E. coli BL21 (DE3)
Protocol: as §1, §2, §3, §4, §5, §6, §7, §8, §9

[4] = target: T4, Arabidopsis HPPD (SEQ ID: 53) M335H, P336A, E363Q (Arabidopsis thaliana, UniProt P93836, E363Q/M335H/P336A); assay: HPPD activity assay, mutant enzyme; format: biochemical; conditions: Table 15, normalized to Arabidopsis wild-type
T4 construct: PCR-based site directed mutagenesis of pEXP5-NT/TOPO®-AtHPPD; His6 (N); made in house; host or cells: E. coli BL21 (DE3)
Protocol: as §1, §2, §3, §4, §5, §6, §7, §8, §9

[5] = target: T5, Hordeum HPPD (SEQ ID: 2) R309K (Hordeum vulgare, UniProt O48604, A164G/R146V/R147D/R148G/R309K); assay: HPPD activity assay, mutant enzyme; format: biochemical; conditions: Table 16, normalized to Hordeum wild-type
T5 construct: His tag (N); made in house; host or cells: E. coli BL21 (DE3)
Protocol: as §1, §2, §3, §4, §5, §6, §7, §8, §9

[6] = system: Synechoccus HPPD; assay: HPPD activity assay, wildtype enzyme; format: biochemical, Synechococcus; conditions: Table 12, normalized to Arabidopsis HPPD
Protocol: as §1, §2, §3, §4, §5
Inhibitors are dissolved in DMSO (dimethylsulfoxide) to a concentration of 0.5 mM. From this stock solution serial five-fold dilutions are prepared in DMSO, which are used in the assay. […] IC50 values are calculated using non-linear regression. […]

[7] = system: Lolium HPPD; assay: HPPD activity assay, wildtype enzyme; format: biochemical; conditions: Table 12, normalized to Arabidopsis HPPD
Protocol: as §1, §2, §3, §4, §5
(§10) Inhibitors are dissolved in DMSO (dimethylsulfoxide) to a concentration of 0.5 mM. From this stock solution serial five-fold dilutions are prepared in DMSO, which are used in the assay. The respective inhibitor solution accounts for 1% of the assay volume. Thus, final inhibitor concentrations range from […], respectively. Activities are normalized by setting the uninhibited enzyme activity to 100%. IC50 values are calculated using non-linear regression.
(§11) Using methods which are described in the above examples or well known in the art, purified, recombinant wildtype HPPD enzymes are characterized with respect to their kinetic properties and sensitivity towards HPPD inhibiting herbicides. Apparent michaelis constants (Km) and maximal reaction velocities (Vmax) are calculated by non-linear regression with the software GraphPad Prism 5 (GraphPad Software, La Jolla, USA) using a substrate inhibition model. Apparent kcat values are calculated from Vmax assuming 100% purity of the enzyme preparation. Weighted means (by standard error) of Km and IC50 values are calculated from at least three independent experiments. The Cheng-Prusoff equation for competitive inhibition (Cheng, Y. C.; Prusoff, W. H. Biochem Pharmacol 1973, 22, 3099-3108) is used to calculate dissociation constants (Ki).
as §8, with “the” for “the optimized”

[8] = system: Kordia HPPD; assay: HPPD activity assay, wildtype enzyme; format: biochemical; conditions: Table 12, normalized to Arabidopsis HPPD
Protocol: as §1, §2, §3, §4, §5, §10, §11
as §8, with “the” for “the optimized”

[9] = system: Rhodococcus HPPD (Seq ID 46); assay: HPPD activity assay, wildtype enzyme; format: biochemical; conditions: Table 12, normalized to Arabidopsis HPPD; Rhodococcus (Seq ID 46)
Protocol: as §1, §2, §3, §4, §5, §10, §11
as §8, with “the” for “the optimized”

[10] = system: non-transgenic Arabidopsis plants (WT); assay: Greenhouse herbicide spray test, Arabidopsis plants (T2); format: in vivo, Arabidopsis thaliana; conditions: two weeks after treatment
Excerpt: For post emergence treatment, the test plants are first grown to a height of 3 to 15 cm, depending on the plant habit, and only then treated with the herbicides. For this purpose, the test plants are either sown directly and grown in the same containers, or they are first grown separately and transplanted into the test containers a few days prior to treatment.
Additionally, T1 and T2 transgenic Arabidopsis plants can be tested for improved tolerance to N-heterocyclyl-arylcarboxamides in a greenhouse studies. Herbicide injury scoring is done 2-3 weeks after treatment and is rated on a scale of 0 to 100%, 0% being no injury and 100% being complete death.

T5 sequence (O48604 whole entry R146V/R147D/R148G/A164G/R309K): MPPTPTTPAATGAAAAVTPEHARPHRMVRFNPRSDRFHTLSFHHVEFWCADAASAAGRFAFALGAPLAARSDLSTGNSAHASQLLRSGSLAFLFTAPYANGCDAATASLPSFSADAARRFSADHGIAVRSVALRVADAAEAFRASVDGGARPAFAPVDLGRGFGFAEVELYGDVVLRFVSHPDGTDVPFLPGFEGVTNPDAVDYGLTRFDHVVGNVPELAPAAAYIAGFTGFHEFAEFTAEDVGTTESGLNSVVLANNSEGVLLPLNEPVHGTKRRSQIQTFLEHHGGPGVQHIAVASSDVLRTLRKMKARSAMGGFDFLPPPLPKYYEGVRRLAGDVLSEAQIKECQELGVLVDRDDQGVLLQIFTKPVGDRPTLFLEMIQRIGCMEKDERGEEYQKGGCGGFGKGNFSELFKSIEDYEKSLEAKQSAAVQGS
T3 sequence (P93836 whole entry M335H/P336A): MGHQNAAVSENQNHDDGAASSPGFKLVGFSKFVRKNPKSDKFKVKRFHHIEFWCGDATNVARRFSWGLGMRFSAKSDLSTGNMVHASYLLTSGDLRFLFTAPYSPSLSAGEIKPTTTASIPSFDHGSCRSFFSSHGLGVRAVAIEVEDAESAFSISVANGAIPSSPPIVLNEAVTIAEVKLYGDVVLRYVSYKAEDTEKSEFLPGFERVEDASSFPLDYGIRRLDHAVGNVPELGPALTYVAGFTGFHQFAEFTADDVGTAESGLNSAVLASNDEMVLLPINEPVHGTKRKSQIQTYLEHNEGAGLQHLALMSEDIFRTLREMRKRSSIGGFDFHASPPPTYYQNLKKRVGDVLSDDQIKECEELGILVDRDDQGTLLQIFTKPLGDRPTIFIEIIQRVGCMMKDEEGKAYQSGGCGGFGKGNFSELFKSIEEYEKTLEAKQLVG
T4 sequence (P93836 whole entry M335H/P336A/E363Q): as the sequence (P93836 whole entry M335H/P336A) above, with E363Q counted along it
T2 sequence (O48604 whole entry R146V/R147D/R148G/A164G/L320H/P321A): as the sequence (O48604 whole entry R146V/R147D/R148G/A164G/R309K) above, with K309R, L320H, P321A counted along it
T1 sequence (O48604 whole entry R146V/R147D/R148G/A164G/L320Q/P321R/L353M): as the sequence (O48604 whole entry R146V/R147D/R148G/A164G/R309K) above, with K309R, L320Q, P321R, L353M counted along it

Cc1nonc1NC(=O)c1ccc(S(C)(=O)=O)c(S(C)(=O)=O)c1C [Inhibitor 1, 2-methyl-N-(4-methyl-1,2,5-oxadiazol-3-yl)-3,4-bis(methylsulfonyl)benzamide]
Normalized tolerance index TI Inhibitor 1 [1]: 12.6 | Normalized tolerance index TI Inhibitor 1 [2]: 5.3 | Normalized tolerance index TI Inhibitor 1 [3]: 2.4 | Normalized tolerance index TI Inhibitor 1 [4]: 6.7 | Normalized tolerance index TI Inhibitor 1 [5]: 1.6 | Normalized tolerance index TI Inhibitor 1 [6]: 69.9 | Normalized tolerance index TI Inhibitor 1 [7]: 1.7 | Normalized tolerance index TI Inhibitor 1 [8]: 3.5 | Normalized tolerance index TI Inhibitor 1 [9]: 12.4 | Injury evaluation ([10]; WT (control of AtHPPD events), 1.56 g/ha): 92% | Injury evaluation ([10]; WT (control of AtHPPD events), 3.125 g/ha): 91% | Injury evaluation ([10]; WT (control of AtHPPD events), 6.25 g/ha): 97% | Injury evaluation ([10]; WT (control of AtHPPD events), 12.5 g/ha): 97% | Injury evaluation ([10]; WT (control of HvHPPD events), 1.56 g/ha): 98% | Injury evaluation ([10]; WT (control of HvHPPD events), 3.125 g/ha): 98% | Injury evaluation ([10]; WT (control of HvHPPD events), 6.25 g/ha): 100% | Injury evaluation ([10]; WT (control of HvHPPD events), 12.5 g/ha): 100%
